Laboratory results: patent publication US20240027479A1, “A Comprehensive Breath Test that Confirms Recent Use of Inhaled Cannabis within the Impairment Window” (RCU Labs, Inc., priority 2018, published 2024)
“And” between values parts separate entries of the source, which are not always exact repeats. Equal values may be shown once. Read-outs that look alike come from different tables or passages of the source.

Experiments:
[1] = Stability of target analytes in the breath collection device; assay type: physicochemical
Excerpt: In particular, CBN, CBG, and Δ^9-THCV all have a much greater incidence in breath during peak impairment (the first hour after smoking) compared to pre-smoking. […] Stability of the analytes within the breath collection devices was previously established (see Table 4 below).

[2] = Presence of cannabinoids in exhaled breath before and after smoking (LC-HRMS); assay type: in vivo, human
Procedure: (§1) The positive recent use test results outside of the three-hour impairment window based on blood sampling alone led to the incorporation of a second testing matrix, exhaled breath, to strengthen the results of the test method so that cannabis users who are within the impairment window after smoking can be more accurately identified. For this purpose, a total of 44 additional subjects were evaluated in a smoking study in which both exhaled breath and blood samples were collected and then analyzed by LC-HRMS for cannabinoids and Δ^9-THC metabolites. As with the 48-subject blood-based study, subjects were given a 500-mg cannabis cigarette to smoke, and breath and blood samples were collected at various time points before and after smoking.

[3] = Cannabinoids and Δ^9-THC metabolites in capillary blood (LC-HRMS); conditions: pre-smoking
Excerpt: The complex nature of cannabinoid pharmacokinetics and pharmacodynamics calls for a new approach for effectively determining recent use of cannabis within the impairment window. We sought to develop a multiple-parameter test based on pharmacological changes in Δ^9-THC and its metabolites in blood over time. This approach requires the collection of two samples separated by a known time interval, which is a critical difference compared to current blood testing methods that rely on the collection of a single sample. The two-sample strategy makes possible the detection of Δ^9-THC in its distribution phase where the half-life is very short [Moeller M R. et al., J Forensic Sci 37:969-83 (1992); Wall M E. et al., Clin Pharmacol Ther 34:352-63 (1983)], which occurs only within the first few hours after smoking, and for the evaluation of how Δ^9-THC metabolite levels in blood are changing with time relative to Δ^9-THC. A liquid chromatography high-resolution mass spectrometry (LC-HRMS) bioanalytical method for the quantification of cannabinoids in microsamples (50 μL) of whole blood was developed and validated for this purpose [DeGregorio M W. et al., J AOAC Int 103:725-35 (2020)].
A total of 92 subjects were included in clinical trials designed to evaluate the feasibility of the described method for determining recent cannabis use (blood-based study in 48 subjects) and recent cannabis use and impairment (breath- and blood-based study in 44 subjects). Each subject was given a single cannabis cigarette and instructed to smoke as much of it as possible within a 10-minute period. Cigarettes containing 500 mg of dried cannabis flower were prepared immediately before each smoking session. During the studies, subjects were given a variety of cannabis chemovars to smoke, with Δ^9-THC content ranging from a low of 8.5% to a high of 28.4%. A wide variety of chemovars was included to account for the variability in Δ^9-THC potencies available in numerous cannabis retail establishments in the various U.S. states where recreational and/or medicinal cannabis has been legalized. Capillary blood samples ([…] collected at various time points prior to smoking and up to 200 minutes after smoking, were obtained from a total of 92 subjects using a variety of methods including lancets and two types of automated blood collection devices. Exhaled breath samples were collected from a total of 44 subjects at various time points prior to smoking and up to 240 minutes post-smoking. Breath samples were collected using devices equipped with electrostatic polymer filters and that are designed to collect approximately 20 L of exhaled breath through normal breathing. The time required for breath sample collection was approximately 2-3 minutes. A total of 74 subjects were asked to self-assess their level of impairment before smoking and at each designated sampling time point after smoking based on a scale ranging from 0 (not impaired) to 10 (very impaired) as shown in FIG. 2. As a physical indicator of impairment, 44 subjects were evaluated for horizontal gaze nystagmus.
One of the first endpoints investigated during clinical development of the recent use test method was whether there is any relationship between blood Δ^9-THC levels and impairment. Prior to smoking, Δ^9-THC blood concentrations were evaluated in a group of 30 subjects before and up to 200 minutes after smoking a 500-mg cannabis cigarette and compared to a common legal limit (5 ng/mL) for establishing driver impairment due to cannabis.

[4] = Cannabinoid half-lives in exhaled breath, multi-point breath sampling; assay type: in vivo, human; conditions: for Cannabinoid Half-Lives (min) in breath, back-to-back sampling: individual subject; for half-life: human, exhaled breath, inhaled, 500 mg
Procedure: as §1
These included the presence of CBN, CBC, CBG, Δ^9-THCV, and CBGA, and short half-lives (<60 minutes) for Δ^9-THC, CBN, CBC, CBG, and Δ^9-THCV (see Table 5 below). […] Pre-smoking, half-lives were calculable for Δ^9-THC in only three subjects.
Evidence of recent cannabis use by inhalation through smoking or vaping dissipates rapidly in exhaled breath, and thus allowing 20 minutes between breath samplings, which was employed in the blood-based study and for most of the subjects in the blood and breath-based study, may result in the loss of valuable data. In the last nine subjects involved in the exhaled breath study, a back-to-back sample collection strategy was employed whereby two exhaled breath samples were collected in quick succession at 20 and 40 minutes post-smoking. Approximately two minutes elapsed between the collection of each sample. The very short half-lives observed for Δ^9-THC, CBN, and other cannabinoids (approximately five minutes or less) in exhaled breath would allow for rapid sampling (see Table 6 below).

[5] = Day 3, breath collection device
[6] = Day 7, breath collection device
[7] = Day 10, breath collection device
[8] = Day 14, breath collection device
[9] = Day 30, breath collection device
[10] = 20 Minutes Post-Smoking, read-out: Cannabinoid Half-Lives (min) in breath, back-to-back sampling, Average
[11] = 40 Minutes Post-Smoking, read-out: Cannabinoid Half-Lives (min) in breath, back-to-back sampling, Average

SMILES	Analyte Stability (%) at Room Temperature (20-25° C.) [1, 5] [%]	Analyte Stability (%) at Room Temperature (20-25° C.) [1, 6] [%]	Analyte Stability (%) at Room Temperature (20-25° C.) [1, 7] [%]	Analyte Stability (%) at Room Temperature (20-25° C.) [1, 9] [%]	Presence in exhaled breath, Percent (%) Positivity ([2]; >60 minutes after smoking)	Presence in exhaled breath, positive/evaluable subjects ([2]; >60 minutes after smoking)	Presence in exhaled breath, Percent (%) Positivity ([2]; Baseline (Pre-smoking))	Presence in exhaled breath, positive/evaluable subjects ([2]; Baseline (Pre-smoking))	Presence in exhaled breath, Percent (%) Positivity ([2]; ≤60 minutes after smoking)	Presence in exhaled breath, positive/evaluable subjects ([2]; ≤60 minutes after smoking)	detection in subjects' blood samples at baseline prior to smoking [3]	other results
CCCCCc1cc(O)c2c(c1)OC(C)(CCC=C(C)C)C=C2 (stereo not drawn) [CBC, cannabichromene]	100.6	89.1	89.9	75.6	(0%)	0/40	(0%)	0/34	(97.5%)	39/40	detected	Analyte Stability (%) at Room Temperature (20-25° C.) [1, 8]: 82.2%; Cannabinoid Half-Lives (min) in breath, back-to-back sampling ([4]; 20 Minutes Post-Smoking): 2.2 min and 2.0 min and 2.7 min and 1.3 min and 11.8 min and 1.0 min; Cannabinoid Half-Lives (min) in breath, back-to-back sampling ([4]; 40 Minutes Post-Smoking): 2.3 min and 3.5 min and 5.2 min; half-life ([4]; 0-10 Minutes Post-Smoking, read-out: Average Half-Life (minutes ± SD) in breath): 3.9 ± 2.5 min; half-life ([4]; 0-20 Minutes Post-Smoking, read-out: Average Half-Life (minutes ± SD) in breath): 3.8 ± 2.3 min; half-life [4, 10]: 3.3 min; half-life [4, 11]: 3.6 min
CCCc1cc(O)c2c(c1)OC(C)(C)[C@@H]1CCC(C)=C[C@@H]21 [Δ^9-THCV, Δ^9-tetrahydrocannabivarin]	79.7	68.1	69.8	47.1	(0%)	0/40	(0%)	0/34	(90.0%)	36/40	detected	Analyte Stability (%) at Room Temperature (20-25° C.) [1, 8]: 56.5%; Average Half-Life (minutes ± SD) in breath ([4]; 0-10 Minutes Post-Smoking): 4.2 ± 3.9 min; Average Half-Life (minutes ± SD) in breath ([4]; 0-20 Minutes Post-Smoking): 2.9 ± 0.7 min
CCCCCc1cc(O)c2c(c1)OC(C)(C)C1CC(O)C(CO)=CC21 (stereo not drawn) [8β,11-dihydroxy-Δ^9-THC]	–	–	–	–	–	–	–	–	–	–	detected	–
CCCCCc1cc(O)c2c(c1)OC(C)(C)[C@@H]1C[C@@H](O)C(C)=C[C@@H]21 [8β-hydroxy-Δ^9-THC]	–	–	–	–	–	–	–	–	–	–	detected	–
CCCCCc1cc(O)c2c(c1)OC(C)(C)c1ccc(C)cc1-2 [CBN, cannabinol]	104.5	100.0	107.3	74.4	(10.0%)	4/40	(2.9%)	1/34	(92.5%)	37/40	detected	Analyte Stability (%) at Room Temperature (20-25° C.) [1, 8]: 87.9%; Cannabinoid Half-Lives (min) in breath, back-to-back sampling ([4]; 20 Minutes Post-Smoking): 2.0 min and 2.3 min and 1.8 min and 6.4 min and 1.1 min; Cannabinoid Half-Lives (min) in breath, back-to-back sampling ([4]; 40 Minutes Post-Smoking): 2.9 min and 4.8 min and 10.7 min; half-lives observed in exhaled breath ([4]; approximate, summary statement): five; half-life ([4]; 20-60 Minutes Post-Smoking, read-out: Average Half-Life (minutes ± SD) in breath): 35.2 min; half-life [4, 10]: 2.7 min; half-life ([4]; 40-60 Minutes Post-Smoking, read-out: Average Half-Life (minutes ± SD) in breath): 12.8 min; half-life [4, 11]: 6.1 min
CCCCCc1cc2c(c(O)c1C(=O)O)[C@@H]1C=C(C)CC[C@H]1C(C)(C)O2 [Δ^9-THCA, Δ^9-tetrahydrocannabinolic acid A]	–	–	–	–	–	–	–	–	–	–	detected	–
CCCCCc1cc(O)c2c(c1)OC(C)(C)C1CCC(CO)=CC21 (stereo not drawn) [11-OH-Δ^9-THC, 11-hydroxy-Δ^9-tetrahydrocannabinol]	–	–	–	–	–	–	–	–	–	–	detected	–
C=C(C)[C@@H]1CCC(C)=C[C@H]1c1c(O)cc(CCCCC)c(C(=O)O)c1O [CBDA, cannabidiolic acid]	–	–	–	–	–	–	–	–	–	–	detected	–
C=C(C)[C@@H]1CCC(C)=C[C@H]1c1c(O)cc(CCCCC)cc1O [CBD, cannabidiol]	–	–	–	–	–	–	–	–	–	–	detected	–
CCCCCc1cc(O)c(C/C=C(\C)CCC=C(C)C)c(O)c1C(=O)O [CBGA, cannabigerolic acid]	99.4	110.9	110.4	114.3	(10.0%)	4/40	(11.8%)	4/34	(45.0%)	18/40	detected	–
CCCCCc1cc(O)c2c(c1)OC(C)(C)[C@@H]1CCC(C(=O)O)=C[C@@H]21 [11-nor-9-carboxy-Δ^9-THC, 11-nor-9-carboxy-Δ^9-tetrahydrocannabinol]	–	–	–	–	–	–	–	–	–	–	detected	–
